Entries after “also recorded” stand apart in the source; their conditions may differ.
Assays:
[1] = target: T1, NRP‐1/VEGFR‐1 interaction (Homo sapiens, UniProt O14786); test: SPR, inhibition of NRP‐1/VEGFR‐1 interaction; format: binding; conditions: in words, NRP‐1 immobilized, VEGFR‐1 5 nM
T1 construct: purchased R&D Systems 3870-N1 (NRP-1); 321-FL-050 (VEGFR-1/Fc)
T1 sequence (O14786 22-644 isoform O14786-2 limits assumed): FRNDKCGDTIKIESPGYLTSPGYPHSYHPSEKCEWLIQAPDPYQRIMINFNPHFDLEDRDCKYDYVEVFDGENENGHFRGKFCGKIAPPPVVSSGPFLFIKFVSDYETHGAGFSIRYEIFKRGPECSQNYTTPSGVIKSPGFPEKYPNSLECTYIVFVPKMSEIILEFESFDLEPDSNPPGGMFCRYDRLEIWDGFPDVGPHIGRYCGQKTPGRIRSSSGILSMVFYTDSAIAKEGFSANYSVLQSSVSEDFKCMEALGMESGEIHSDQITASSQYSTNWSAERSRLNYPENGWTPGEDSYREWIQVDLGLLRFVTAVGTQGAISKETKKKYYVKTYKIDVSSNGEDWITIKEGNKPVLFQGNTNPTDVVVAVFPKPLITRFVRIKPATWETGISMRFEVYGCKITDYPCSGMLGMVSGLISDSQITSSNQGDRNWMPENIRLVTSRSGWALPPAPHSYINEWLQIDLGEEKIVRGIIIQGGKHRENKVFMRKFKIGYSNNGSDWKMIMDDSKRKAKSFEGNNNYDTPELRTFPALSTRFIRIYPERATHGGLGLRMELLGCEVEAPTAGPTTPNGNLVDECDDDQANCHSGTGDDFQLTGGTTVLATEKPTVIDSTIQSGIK
Protocol: Fig. 2 Flt2‐11 peptide inhibits NRP‐1 binding to VEGFR‐1. SPR analysis of the interaction between VEGFR‐1 and NRP‐1 in peptide absence (A), or presence of Flt2‐11 peptide (B) or scrambled Flt2‐11 peptide (C). NRP‐1 is immobilized on the sensor chip. (A) VEGFR‐1 is injected at different concentrations (from bottom to top: 0.6 nM, cyan; 1 nM, red; 2 nM, green; 2.5 nM, blue; and 5 nM, black). […] (B) VEGFR‐1 is injected at 5 nM together with peptide Flt2‐11 at different concentrations (from top to bottom: 0, black; 5 nM, blue; 15 nM, green; 45 nM, red; 100 nM, cyan; and 800 nM, magenta). […] (C) VEGFR‐1 is injected at 5 nM together with ‘scrambled’ Flt2‐11 peptide at different concentrations (from top to bottom: 0, black; 0.5 μM, blue; 950 μM, geen; and […], red).
SPR experiments were carried out using a BIACORE X system (Biacore AB, Uppsala, Sweden). […] The reaction was carried out in 20 mM sodium acetate at pH 5.0, which is about 2 points below the theoretical NRP‐1 isoelectric point calculated using the program pI‐tool. […]
RU express the mass concentration‐dependent changes in the observed SPR signal, that is, the refractive index on the sensor chip surface. Changes in this signal are determined by the interaction between the immobilized protein (i.e., either NRP‐1 or VEGFR‐1) with the analyte protein (i.e., VEGFR‐1/Fc, α5β1 integrin or semaphorin 3A). […]

[2] = test system: EC (HUVEC) adhesion to sVEGFR‐1; test: Cell adhesion assay, EC adhesion to sVEGFR‐1; format: cell-based, human; conditions: for effect on EC adhesion to sVEGFR‐1: peptide 20 µg·mL^−1 during adhesion, 37 °C, 1 h, 20 µg·mL^−1 VEGFR‐1/Fc coating, crystal violet, 540 nm, triplicate
Protocol: (§1) Human umbilical vein endothelial cells (HUVEC) were isolated from freshly delivered umbilical cords, as previously described, cultured in Endothelial Cell Growth Medium‐2 Kit from Clonetics (EGM‐2, CC4176, Lonza, Basel, Switzerland), and used up to passage 6. For functional assays, HUVEC were resuspended in Endothelial Basal Medium‐2 (EBM‐2, CC3156, Lonza). A pool of cells derived from four different individuals was used.
(§2) Solid support for adhesion assay was prepared by incubating immunological 96‐multiwell plates with 20 µg·mL^−1 VEGFR‐1/Fc chimera, or fibronectin solubilized in PBS. After 2 h, the coating solution was removed, and the well surface was blocked with 3% BSA in PBS for 18 h, before plating ECs in serum‐free medium at 3 × 10^4 cells per well. After incubation at 37 °C for 1 h, the wells were washed with PBS and attached cells were fixed with 3% formaldehyde and stained with 0.5% crystal violet. Attachment efficiency was determined by quantitative dye extraction and spectrophotometric measurement of the absorbance at 540 nm, using a Microplate reader 3550‐UV (Bio‐Rad). In competition experiments, peptides Flt2‐11, scrambled Flt2‐11, Flt2‐8 or Flt2‐5, at 20 µg·mL^−1, were added during the adhesion assay. Adhesion to peptide 12 was carried out by using maleic anhydride activated microplates (Reacti‐Bind, Pierce, Rockford, IL, USA) coated with 500 µg·mL^−1 of the peptide.

[3] = test system: EC (HUVEC) adhesion to fibronectin; test: Cell adhesion assay, EC adhesion to fibronectin; format: cell-based, human
Protocol: as §1, §2

[4] = test system: HUVEC migration towards sVEGFR‐1; test: Migration assay (Boyden chamber) towards sVEGFR‐1; format: cell-based, human; conditions: peptide 40 µM, 30 min preincubation; sVEGFR‐1 5 µg·mL^−1; 2 h, 37 °C; triplicate
Protocol: as §1
Cell migration was analysed using Boyden chambers equipped with 8 µm pore diameter polycarbonate filters (Nuclepore, Whatman Incorporated, Clifton, NJ, USA). Human sVEGFR‐1 stimulus (5 µg·mL^−1) for chemotaxis was added to the lower chamber and HUVEC (1.5 × 10^5) were loaded into the upper chamber. […] Cells were then loaded into the Boyden chambers without removing the peptides, and migration towards sVEGFR‐1 was analysed. […] Cells from the upper surface were removed by wiping with a cotton swab, and the chemotactic response was determined by counting the migrating cells attached to the lower surface of the filter in 12 randomly selected microscopic fields (×200 magnification) per experimental condition. Quantification was performed by two independent observers, blinded to the examined condition.

Recombinant human NRP‐1 = target: T2, Recombinant human NRP‐1 (human, UniProt O14786 22-856); test: SPR; competition: NRP-1 immobilised by amine coupling; protein analyte at a fixed concentration (VEGFR-1/Fc 5 nM; α5β1 integrin 200 nM; semaphorin 3A 200 nM) injected together with peptide at different concentrations; HEPES-buffered saline; conditions: both partners purified
T2 construct: Neuropilin-1, human, recombinant soluble protein; see the vendor's datasheet (as far as I recall an extracellular fragment with a C-terminal His tag); also called Neuropilin‐1; soluble NRP‐1; source: bought: R&D Systems (3870‐N1)
T2 sequence (looked up): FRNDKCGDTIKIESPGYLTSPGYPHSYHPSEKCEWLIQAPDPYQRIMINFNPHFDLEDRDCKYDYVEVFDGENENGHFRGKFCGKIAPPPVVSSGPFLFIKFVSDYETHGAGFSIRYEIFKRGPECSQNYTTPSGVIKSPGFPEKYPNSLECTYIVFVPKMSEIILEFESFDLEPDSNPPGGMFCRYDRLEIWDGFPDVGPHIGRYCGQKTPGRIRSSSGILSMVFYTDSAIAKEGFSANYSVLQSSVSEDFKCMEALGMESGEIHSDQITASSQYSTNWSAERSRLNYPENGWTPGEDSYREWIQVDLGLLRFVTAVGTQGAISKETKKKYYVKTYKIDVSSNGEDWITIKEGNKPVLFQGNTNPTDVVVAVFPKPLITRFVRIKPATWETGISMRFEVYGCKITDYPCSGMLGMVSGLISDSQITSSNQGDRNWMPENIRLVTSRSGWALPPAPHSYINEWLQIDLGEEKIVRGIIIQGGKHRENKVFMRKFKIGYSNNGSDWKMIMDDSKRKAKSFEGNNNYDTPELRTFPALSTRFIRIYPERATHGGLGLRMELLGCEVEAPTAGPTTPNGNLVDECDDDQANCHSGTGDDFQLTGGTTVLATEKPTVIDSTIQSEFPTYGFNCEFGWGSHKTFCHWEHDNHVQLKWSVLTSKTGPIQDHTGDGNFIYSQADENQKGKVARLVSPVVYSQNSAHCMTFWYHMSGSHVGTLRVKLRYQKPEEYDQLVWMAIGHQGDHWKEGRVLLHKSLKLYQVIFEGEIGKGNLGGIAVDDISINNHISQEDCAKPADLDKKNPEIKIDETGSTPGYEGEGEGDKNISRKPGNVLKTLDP

[5] = ECs pretreated with soluble NRP‐1

For “LVPLKIKNTFT [scrambled Flt2‐11, containing the same residues as Flt2‐11 but in a different order, reference compound]”, the “effect on NRP‐1/VEGFR‐1 (sVEGFR‐1) interaction” value [1] was “had no effect on NRP‐1/VEGFR‐1 interaction; also recorded: inhibits NRP‐1/VEGFR‐1 interaction only at high concentrations”, the “effect on EC adhesion to sVEGFR‐1” value [2] was “does not affect EC adhesion” and the “effect on EC adhesion to fibronectin” value ([3]; peptide 20 µg·mL^−1 during adhesion, 37 °C, 1 h, 20 µg·mL^−1 fibronectin coating, crystal violet, 540 nm, triplicate) was “does not affect EC adhesion”.

In the case of “NITVT [Flt2‐5, Flt2‐11 peptide variant comprising the first five N‐terminal residues]”, the “effect on NRP‐1/VEGFR‐1 (sVEGFR‐1) interaction” value [1] is reported as “inhibiting NRP‐1/sVEGFR‐1 interaction as well”, the “effect on EC adhesion to sVEGFR‐1” value [2] is reported as “same ability as the parent Flt2‐11 peptide to inhibit cell adhesion to; also recorded: able to significantly inhibit EC adhesion; also recorded: efficacy comparable to that of the parent eleven‐residue Flt2‐11 peptide” and the “effect on EC migration towards sVEGFR‐1” value [4] is reported as “same ability as the parent Flt2‐11 peptide to inhibit cell adhesion to, and migration towards, sVEGFR‐1; also recorded: migration towards, sVEGFR‐1 (Fig. 6C), to a similar extent as the Flt2‐11 peptide; also recorded: efficacy comparable to that of the parent eleven‐residue Flt2‐11 peptide”.

With “soluble NRP‐1: Recombinant human NRP‐1 (3870‐N1), R&D Systems” the “effect of soluble NRP‐1 on EC adhesion to sVEGFR‐1” value [2, 5] was “not detectably altered”, the “effect of soluble NRP‐1 on EC adhesion to sVEGFR‐1” value ([2]; soluble NRP‐1 on coated plates prior to EC addition) was “impaired” and the “effect of soluble NRP‐1 on EC adhesion to fibronectin” value [3, 5] was “not detectably altered”.

B1: Flt_(2‐11) peptide (peptide)
peptide: NITVTLKKFPL
notes: Unlabelled peptide, as co-injected in the SPR experiments; also called peptide Flt_(2‐11); source: synthetic peptide (Primm, Milan)
B1 showed a Ki (Recombinant human NRP‐1) of 20 nM.

— article PMC9290910, “Neuropilin‐1 is required for endothelial cell adhesion to soluble vascular endothelial growth factor receptor 1” (The Febs Journal, 2021)
